From patent publication US6737383B1, “Herbicidal oxadiazolidines” (priority 1999, dated 2004)

Key:
bedstraw = experiment: Test B pre/postemergence bedstraw; format: in vivo, Galium aparine
Summary of the method: (§1)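 Response is a visual 0-to-10 score relative to untreated plants, where 0 means no effect and 10 means complete control, taken twelve to sixteen days after application. Treatments went onto soil at planting and onto foliage of 1- to 4-leaf plants, using a surfactant-containing non-phytotoxic solvent.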

blackgrass [1] = experiment: Test B pre/postemergence blackgrass; format: in vivo, Alopecurus myosuroides
Summary of the method: as §1

soybean = experiment: Test B pre/postemergence soybean; format: in vivo, Glycine max
Summary of the method: as §1

velvetleaf = experiment: Test B pre/postemergence velvetleaf; format: in vivo, Abutilon theophrasti
Summary of the method: as §1

winter wheat [2] = experiment: Test E winter wheat; format: in vivo, Triticum aestivum; settings: Postemergence
Summary of the method: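 Compound formulated with surfactant in a non-phytotoxic solvent (postemergence: young 1- to 4-leaf plants); held in greenhouse approx. 21–28 days; visual assessment against untreated plants.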

blackgrass [3] = experiment: Test E blackgrass; format: in vivo, Alopecurus myosuroides; settings: Preemergence
green foxtail = experiment: Test E green foxtail; format: in vivo, Setaria viridis; settings: Preemergence
Italian ryegrass = experiment: Test E Italian ryegrass; format: in vivo, Lolium multiflorum; settings: Preemergence
winter wheat [4] = experiment: Test E winter wheat; format: in vivo, Triticum aestivum; settings: Preemergence
wild oat = experiment: Test E wild oat; format: in vivo, Avena fatua; settings: Preemergence
winter barley = experiment: Test E winter barley; format: in vivo, Hordeum vulgare; settings: Preemergence
[5] = Postemergence, Rate 31 g/ha, visual rating, scale 0 to 10 (0 no effect, 10 complete control)
[6] = Preemergence, Rate 31 g/ha, visual rating, scale 0 to 10 (0 no effect, 10 complete control)
[7] = Preemergence, Rate 62 g/ha, scale of 0 to 10 where 0 is no effect and 10 is complete control
[8] = Rate 16 g/ha, Postemergence, scale 0 to 10, 0 no effect, 10 complete control
[9] = Rate 16 g/ha, Preemergence, scale 0 to 10, 0 no effect, 10 complete control
[10] = Rate 62 g/ha, Postemergence, scale 0 to 10 (0 no effect, 10 complete control)
[11] = Rate 125 g/ha, Postemergence, scale of 0 to 10 where 0 is no effect and 10 is complete control
[12] = Rate 125 g/ha, Preemergence, scale of 0 to 10 where 0 is no effect and 10 is complete control
[13] = Rate 500 g/ha, 0 to 100 scale (0 no effect, 100 complete control)
[14] = Rate 1000 g/ha, 0 to 100 scale, 0 no effect, 100 complete control

CCCCCn1c(=O)on(C(=O)N(c2ccc(F)cc2)C(C)C)c1=O [Compound 290]
Bedstraw plant response rating (bedstraw; [5]): 0
Bedstraw plant response rating (bedstraw; [6]): 0
Bedstraw plant response rating (bedstraw; [7]): 0
Bedstraw plant response rating (bedstraw; [8]): 0
Bedstraw plant response rating (bedstraw; [9]): 0
Bedstraw plant response rating (bedstraw; [10]): 0
Bedstraw plant response rating (bedstraw; [11]): 0
Bedstraw plant response rating (bedstraw; [12]): 3
Blackgrass plant response rating (blackgrass [1]; [5]): 0
Blackgrass plant response rating (blackgrass [1]; [6]): 0
Blackgrass plant response rating (blackgrass [1]; [7]): 2
Blackgrass plant response rating (blackgrass [1]; [8]): 0
Blackgrass plant response rating (blackgrass [1]; [9]): 0
Blackgrass plant response rating (blackgrass [1]; [10]): 0
Blackgrass plant response rating (blackgrass [1]; [11]): 0
Blackgrass plant response rating (blackgrass [1]; [12]): 2
Soybean plant response rating (soybean; [5]): 1
Soybean plant response rating (soybean; [6]): 0
Soybean plant response rating (soybean; [7]): 0
Soybean plant response rating (soybean; [8]): 1
Soybean plant response rating (soybean; [9]): 0
Soybean plant response rating (soybean; [10]): 2
Soybean plant response rating (soybean; [11]): 2
Soybean plant response rating (soybean; [12]): 0
Velvetleaf plant response rating (velvetleaf; [5]): 0
Velvetleaf plant response rating (velvetleaf; [6]): 0
Velvetleaf plant response rating (velvetleaf; [7]): 0
Velvetleaf plant response rating (velvetleaf; [8]): 0
Velvetleaf plant response rating (velvetleaf; [9]): 0
Velvetleaf plant response rating (velvetleaf; [10]): 0
Velvetleaf plant response rating (velvetleaf; [11]): 0
Velvetleaf plant response rating (velvetleaf; [12]): 0
Plant response rating, Wheat (winter) (winter wheat [2]; Rate 1000 g/ha, 0 to 100 scale where 0 is no effect and 100 is complete control): 70
Wheat (winter) plant response rating (winter wheat [2]; Rate 250 g/ha, 0 to 100 scale where 0 is no effect and 100 is complete control): 50
Plant response rating, Wheat (winter) (winter wheat [2]; Rate 500 g/ha, 0 to 100 scale, 0 is no effect, 100 is complete control): 60
Blackgrass plant response rating (0 to 100 scale) (blackgrass [3]; Rate 250 g/ha): 60
Plant response rating, Blackgrass (blackgrass [3]; [13]): 70
Plant response rating, Blackgrass (blackgrass [3]; [14]): 95
Green foxtail plant response rating (0 to 100 scale) (green foxtail; Rate 250 g/ha): 65
Plant response rating, Green foxtail (green foxtail; [13]): 70
Plant response rating, Green foxtail (green foxtail; [14]): 85
I. Ryegrass plant response rating (0 to 100 scale) (Italian ryegrass; Rate 250 g/ha): 60
Plant response rating, I. Ryegrass (Italian ryegrass; [13]): 70
Plant response rating, I. Ryegrass (Italian ryegrass; [14]): 90
Wheat (winter) plant response rating (0 to 100 scale) (winter wheat [4]; Rate 250 g/ha): 10
Plant response rating, Wheat (winter) (winter wheat [4]; [13]): 30
Plant response rating, Wheat (winter) (winter wheat [4]; [14]): 50
Wild oat plant response rating (0 to 100 scale) (wild oat; Rate 250 g/ha): 60
Plant response rating, Wild oat (wild oat; [13]): 70
Plant response rating, Wild oat (wild oat; [14]): 70
Barley (winter) plant response rating (0 to 100 scale) (winter barley; Rate 250 g/ha): 55
Plant response rating, Barley (winter) (winter barley; [13]): 60
Plant response rating, Barley (winter) (winter barley; [14]): 70
